How the values were obtained:
[1] = test system: NCI-H838 cells; assay: Anti proliferative activity in NCI-H838 cell line by Cell Titer Glo assay; format: cell-based; settings: Homo sapiens, 192 h, 8 days compound incubation, CellTiter Glo, read-out: Anti-proliferative activity IC50 group (NCI-H838 cells)
Method: Determination of Anti Proliferative Activity of Compounds in NCI-H929 and NCI-H838 Cell Lines by Cell Titer Glo® (promega) assay:
NCI-H929 (ATCC CRL-9068) or NCI-H838 (ATCC CRL-5844) cells were seeded in 96 well plate flat black clear bottom plates (Corning, Cat. No 3904) using complete RPMI-1640 media. Next day, compounds listed in the present invention were added to cells from 10 mM stocks made in DMSO (Sigma Cat no. D2650). Each concentration of compound was tested in triplicate with DMSO concentration at a final percentage not exceeding 0.3 in the cells. After the compound incubation (3 days for H929 and 8 days for H838) assay was terminated using 50 μl of CellTiter Glo® reagent (Promega, Cat. no G7572). CellTiter Glo® Luminescent reagent determines the number of viable cells based on quantitation of ATP present which is an indicator of cell number and metabolic activity. Luminescence readings were taken in Victor-3 instrument. Percent inhibition of proliferation was calculated using formula, % inhibition=100−(luminescence value of test/luminescence value of DMSO control)*100. DMSO control (0%)=Cells in complete media with DMSO; blank=Media alone containing DMSO. IC50 was calculated using graph pad prism software.
Herein group “A” refers to IC50 value lower than 1 μM, “B” refers to IC50 value between 1-10 μM (both inclusive) and “C” refers to IC50 value higher than 10 μM or less than 50% activity at 10 μM.

[2] = target: T1, SMARCA4 (Homo sapiens, UniProt P51532); assay: SMARCA4 degradation in H929 cells by Western blot; format: cell-based; settings: 16 hours; for SMARCA4 percent degradation at 0.1 µM: NCI-H929, 100 nM
T1 construct: endogenous in cells; host or cells: NCI-H929 (ATCC CRL-9068)
Method: (§1) Determination of SMARCA2 and SMARCA4 Degradation in H929 Cells by Western Blot:
(§2) NCI-H929 (ATCC CRL-9068) was plated in 6 well plates using complete RPMI-1640 media. Next day, compounds of present invention were added to cells from 10 mM stocks made in DMSO (Sigma Cat no. D2650). Each concentration of compound was tested with DMSO not exceeding final percentage of 0.3 in the cells. Cells were incubated with the compound for 16 hours followed by harvesting with 1× RIPA lysis buffer (Thermo Fischer, catalogue number #89900) containing protease inhibitor cocktail (Sigma catalogue number #P-8340). Equal amount of protein was loaded on SDS PAGE gel for electrophoresis. Western blot was carried out for detection of either SMARCA2 (Cell signaling technologies, catalogue number #11966) or SMARCA4 antibody (Cell signaling technologies, catalogue number #49360). Beta Actin (Santa Cruz, catalogue number #69879) was used as loading control. Percentage of SMARCA2 or SMARCA4 degradation was calculated using formula % Degradation=100−(normalized band intensity in treated sample/normalized band intensity in DMSO sample)*100.
(§3) Selected compounds of the present invention were screened in the above mentioned assay procedures for determination of % SMARCA2 and SMARCA4 degradation 100 nM and the results are summarized in below table 30.

[3] = target: T2, SMARCA2 (Homo sapiens, UniProt P51531); assay: SMARCA2 degradation in H929 cells by Western blot; format: cell-based; design: endogenous in cells; settings: 16 hours
Method: as §1, §2, §3

[4] = target: T2, SMARCA2; assay: SMARCA2 degradation in NCI-H838 cells by Western blot; format: cell-based; design: endogenous in cells; host or cells: NCI-H838 (ATCC CRL-5844); settings: 16 hours
Method: Determination of SMARCA2 Degradation in NCI-1H838 Cells by Western Blot:
NCI-1H838 (ATCC CRL-5844) was plated in 6 well plates using complete RPMI-1640 media. Next day, compounds of present invention were added to cells from 10 mM stocks made in DMSO (Sigma Cat no. D2650). Each concentration of compound was tested with DMSO concentration not exceeding a final percentage of 0.3 in the cells. Cells were incubated with the compound for 16 hours followed by harvesting with 1× RIPA lysis buffer (Thermo Fischer, catalogue number #89900) containing protease inhibitor cocktail (Sigma catalogue number #P-8340). Equal amount of protein was loaded on SIDS PAGE gel for electrophoresis. Western blot was carried out for detection of SMARCA2 with antibody (Cell signaling technologies, catalogue number #11966). Beta Actin (Santa Cruz, catalogue number #69879) was used as loading control. Percentage of SMARCA2 degradation was calculated using formula % degradation=100−(normalized band intensity in treated sample/normalized band intensity in DMSO sample)*100”.
Selected compounds of the present invention were screened in the above mentioned assay procedures for determination of % SMARCA2 degradation at 100 nM and the results are summarized in below table 31.

[5] = test system: NCI-H929 cells; assay: Anti proliferative activity in NCI-H929 cell line by Cell Titer Glo assay; format: cell-based; settings: Homo sapiens, 72 h, 3 days compound incubation, CellTiter Glo, read-out: Anti-proliferative activity IC50 group (NCI-H929 cells)
In short: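 Cells seeded in complete RPMI-1640 and exposed next day to compounds in triplicate (DMSO ≤0.3% final) for 3 days (H929) or 8 days (H838). Viability by CellTiter-Glo ATP luminescence; % inhibition relative to DMSO control, IC50 from dose-response fit.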

[6] = test system: SMARCA4-deficient cancer cell lines; settings: SMARCA2/4 bromodomain inhibitor; Cancer Res. 2015; cited from earlier work

T2 sequence (P51531 whole entry): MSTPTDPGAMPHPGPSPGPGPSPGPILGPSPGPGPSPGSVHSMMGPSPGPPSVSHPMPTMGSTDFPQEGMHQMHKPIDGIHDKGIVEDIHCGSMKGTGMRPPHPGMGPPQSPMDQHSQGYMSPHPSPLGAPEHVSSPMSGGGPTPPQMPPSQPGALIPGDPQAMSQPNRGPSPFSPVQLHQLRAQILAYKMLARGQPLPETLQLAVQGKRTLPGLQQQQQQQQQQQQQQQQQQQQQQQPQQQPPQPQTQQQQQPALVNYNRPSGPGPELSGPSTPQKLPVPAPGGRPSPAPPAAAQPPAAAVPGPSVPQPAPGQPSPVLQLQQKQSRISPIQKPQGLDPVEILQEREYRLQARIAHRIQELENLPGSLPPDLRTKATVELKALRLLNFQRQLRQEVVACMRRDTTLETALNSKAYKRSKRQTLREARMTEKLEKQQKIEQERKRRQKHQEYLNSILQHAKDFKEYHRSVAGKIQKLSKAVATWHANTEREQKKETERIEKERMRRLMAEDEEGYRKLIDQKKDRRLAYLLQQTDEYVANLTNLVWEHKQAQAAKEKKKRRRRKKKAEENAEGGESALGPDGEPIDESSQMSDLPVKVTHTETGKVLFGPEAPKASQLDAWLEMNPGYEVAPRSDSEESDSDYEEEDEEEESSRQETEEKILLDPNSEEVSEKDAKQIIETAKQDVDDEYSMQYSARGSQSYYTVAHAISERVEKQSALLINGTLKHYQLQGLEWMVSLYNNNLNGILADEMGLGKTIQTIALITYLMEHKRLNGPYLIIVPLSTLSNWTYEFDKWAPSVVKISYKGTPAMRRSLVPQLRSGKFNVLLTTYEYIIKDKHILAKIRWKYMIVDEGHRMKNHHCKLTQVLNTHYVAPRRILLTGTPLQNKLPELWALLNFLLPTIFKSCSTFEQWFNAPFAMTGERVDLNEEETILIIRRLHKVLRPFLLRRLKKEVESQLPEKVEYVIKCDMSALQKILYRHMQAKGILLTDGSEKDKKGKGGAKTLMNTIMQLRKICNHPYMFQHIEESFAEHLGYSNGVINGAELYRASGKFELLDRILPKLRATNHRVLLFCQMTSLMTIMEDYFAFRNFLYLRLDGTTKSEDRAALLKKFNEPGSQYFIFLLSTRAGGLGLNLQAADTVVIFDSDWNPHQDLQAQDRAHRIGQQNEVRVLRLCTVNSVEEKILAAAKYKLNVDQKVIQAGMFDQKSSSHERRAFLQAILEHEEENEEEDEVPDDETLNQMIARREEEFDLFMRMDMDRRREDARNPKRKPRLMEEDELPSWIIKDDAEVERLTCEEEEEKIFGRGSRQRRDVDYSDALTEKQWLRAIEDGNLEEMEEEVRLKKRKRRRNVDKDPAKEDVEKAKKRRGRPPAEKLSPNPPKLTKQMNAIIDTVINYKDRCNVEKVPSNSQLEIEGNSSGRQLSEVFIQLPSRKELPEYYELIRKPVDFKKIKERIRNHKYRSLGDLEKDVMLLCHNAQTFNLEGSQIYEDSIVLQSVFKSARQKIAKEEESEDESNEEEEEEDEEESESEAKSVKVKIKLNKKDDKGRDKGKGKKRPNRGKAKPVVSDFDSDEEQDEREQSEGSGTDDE
T1 sequence (P51532 whole entry): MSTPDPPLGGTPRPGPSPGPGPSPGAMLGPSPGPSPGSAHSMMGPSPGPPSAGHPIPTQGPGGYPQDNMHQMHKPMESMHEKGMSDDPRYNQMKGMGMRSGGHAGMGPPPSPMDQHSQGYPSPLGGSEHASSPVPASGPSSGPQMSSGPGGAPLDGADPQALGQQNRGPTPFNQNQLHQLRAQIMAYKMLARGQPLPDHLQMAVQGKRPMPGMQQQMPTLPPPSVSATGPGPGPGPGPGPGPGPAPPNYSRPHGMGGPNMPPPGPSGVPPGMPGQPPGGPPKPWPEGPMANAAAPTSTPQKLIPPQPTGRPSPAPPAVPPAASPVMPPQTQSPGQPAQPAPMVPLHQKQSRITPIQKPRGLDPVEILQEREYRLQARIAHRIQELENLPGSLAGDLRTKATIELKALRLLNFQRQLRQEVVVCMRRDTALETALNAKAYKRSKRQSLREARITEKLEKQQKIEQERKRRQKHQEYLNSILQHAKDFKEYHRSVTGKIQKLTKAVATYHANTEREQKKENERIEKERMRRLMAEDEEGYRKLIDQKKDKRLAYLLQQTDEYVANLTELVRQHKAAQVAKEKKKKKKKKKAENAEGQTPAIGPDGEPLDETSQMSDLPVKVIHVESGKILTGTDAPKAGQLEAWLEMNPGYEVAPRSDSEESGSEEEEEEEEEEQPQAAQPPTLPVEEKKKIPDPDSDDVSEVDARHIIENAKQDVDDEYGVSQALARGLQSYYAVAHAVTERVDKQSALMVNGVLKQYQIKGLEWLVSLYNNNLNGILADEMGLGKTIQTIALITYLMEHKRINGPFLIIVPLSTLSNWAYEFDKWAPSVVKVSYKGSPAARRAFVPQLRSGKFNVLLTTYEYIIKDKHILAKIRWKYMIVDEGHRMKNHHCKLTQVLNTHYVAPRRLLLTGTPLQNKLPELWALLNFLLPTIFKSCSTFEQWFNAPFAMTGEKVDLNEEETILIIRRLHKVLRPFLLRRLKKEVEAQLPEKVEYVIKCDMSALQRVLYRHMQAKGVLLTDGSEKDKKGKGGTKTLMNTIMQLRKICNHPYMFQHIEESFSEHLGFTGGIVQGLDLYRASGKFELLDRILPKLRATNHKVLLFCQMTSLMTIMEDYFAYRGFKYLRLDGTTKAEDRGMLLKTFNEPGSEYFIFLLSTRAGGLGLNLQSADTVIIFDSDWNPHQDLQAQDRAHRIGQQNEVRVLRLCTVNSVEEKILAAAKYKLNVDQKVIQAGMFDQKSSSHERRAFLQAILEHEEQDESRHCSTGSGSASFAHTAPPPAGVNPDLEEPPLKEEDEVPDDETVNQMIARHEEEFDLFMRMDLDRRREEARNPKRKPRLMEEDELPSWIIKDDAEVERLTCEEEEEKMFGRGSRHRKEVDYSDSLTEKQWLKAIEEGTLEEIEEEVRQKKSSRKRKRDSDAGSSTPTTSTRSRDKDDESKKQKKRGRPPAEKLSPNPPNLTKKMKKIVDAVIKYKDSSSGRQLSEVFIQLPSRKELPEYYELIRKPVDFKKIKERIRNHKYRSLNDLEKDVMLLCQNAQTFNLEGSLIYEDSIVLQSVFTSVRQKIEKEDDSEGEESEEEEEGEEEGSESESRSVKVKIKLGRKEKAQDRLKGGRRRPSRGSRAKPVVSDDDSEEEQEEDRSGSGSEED

| Structure (SMILES) | IC50 [1] [nM] | SMARCA4 percent degradation at 0.1 µM [2] [%] | SMARCA2 Percent degradation @ 100 nM [3] [%] | SMARCA2 @ 100 nM (% SMARCA2 degradation) [4] [%] | IC50 [5] [nM] | SMARCA4 Percent degradation @ 100 nM [2] [%] | antiproliferative phenotype [6] |
| --- | --- | --- | --- | --- | --- | --- | --- |
| Cc1ncsc1-c1ccc([C@H](C)NC(=O)[C@@H]2C[C@@H](O)CN2C(=O)[C@@H](NC(=O)C(C)N2CCN(c3cc(-c4ccccc4O)nnc3N)CC2)C(C)(C)C)cc1 (single isomer, unassigned) [Compound 58] | < 1000 | 100 | 100 | 71 | – | – | – |
| Cc1ncsc1-c1ccc([C@H](C)NC(=O)[C@@H]2C[C@@H](O)CN2C(=O)[C@@H](NC(=O)C(C)C2CCN(c3cc(-c4cccc(F)c4O)nnc3N)CC2)C(C)(C)C)cc1 (single isomer, unassigned) [Compound 83] | < 1000 | – | 100 | 7 | – | – | – |
| Cc1ncsc1-c1ccc([C@H](C)NC(=O)[C@@H]2C[C@@H](O)CN2C(=O)[C@@H](NC(=O)CN2CCN(c3cc(-c4ccccc4O)nnc3N)CC2)C(C)(C)C)cc1 [Compound 43] | < 1000 | – | 100 | 97 | < 1000 | 100 | – |
| Cc1ncsc1-c1ccc([C@H](C)NC(=O)[C@@H]2C[C@@H](O)CN2C(=O)[C@@H](NC(=O)CC2CCN(c3cc(-c4ccccc4O)nnc3N)CC2)C(C)(C)C)cc1 [Compound 51, (2S,4R)-1-((S)-2-(2-(1-(3-amino-6-(2-hydroxyphenyl)pyridazin-4-yl)piperidin-4-yl)acetamido)-3,3-dimethylbutanoyl)-4-hydroxy-N—((S)-1-(4-(4-methylthiazol-5-yl)phenyl)ethyl)pyrrolidine-2-carboxamide] | < 1000 | 99 | – | 99 | < 1000 | – | – |
| Cc1ncsc1-c1ccc([C@H](C)NC(=O)[C@@H]2C[C@@H](O)CN2C(=O)[C@@H](NC(=O)CN2C3CCC2CN(c2cc(-c4ccccc4O)nnc2N)C3)C(C)(C)C)cc1 [Compound 61, (2S,4R)-1-((2S)-2-(2-(3-(3-amino-6-(2-hydroxyphenyl)pyridazin-4-yl)-3,8-diazabicyclo[3.2.1]octan-8-yl)acetamido)-3,3-dimethylbutanoyl)-4-hydroxy-N—((S)-1-(4-(4-methylthiazol-5-yl)phenyl)ethyl)pyrrolidine-2-carboxamide] | < 1000 | – | – | 35 | – | – | – |
| Cc1ncsc1-c1ccc([C@H](C)NC(=O)[C@@H]2C[C@@H](O)CN2C(=O)[C@@H](NC(=O)CN2CCN(c3cc(-c4cc(F)ccc4O)nnc3N)CC2)C(C)(C)C)cc1 [Compound 63, (2S,4R)-1-((S)-2-(2-(4-(3-amino-6-(5-fluoro-2-hydroxyphenyl)pyridazin-4-yl)piperazin-1-yl)acetamido)-3,3-dimethylbutanoyl)-4-hydroxy-N—((S)-1-(4-(4-methylthiazol-5-yl)phenyl)ethyl)pyrrolidine-2-carboxamide] | < 1000 | – | – | 94 | – | – | – |
| Cc1ncsc1-c1ccc([C@H](C)NC(=O)[C@@H]2C[C@@H](O)CN2C(=O)[C@@H](NC(=O)CN2CCC(c3cc(-c4ccccc4O)nnc3N)CC2)C(C)(C)C)cc1 [Compound 81] | < 1000 | – | – | 34 | < 1000 | – | – |
| Cc1ncsc1-c1ccc([C@H](C)NC(=O)[C@@H]2C[C@@H](O)CN2C(=O)[C@@H](NC(=O)CN2CC=C(c3cc(-c4ccccc4O)nnc3N)CC2)C(C)(C)C)cc1 [Compound 82] | < 1000 | – | – | 61 | < 1000 | – | – |
| Cc1ncsc1-c1ccc([C@H](C)NC(=O)[C@@H]2C[C@@H](O)CN2C(=O)[C@@H](NC(=O)CN2CCN(c3cc(-c4cccc(F)c4O)nnc3N)CC2)C(C)(C)C)cc1 [Compound 90] | < 1000 | 101 | 100 | 85 | < 1000 | – | – |
| Cc1cccc(-c2cc(N3CCN(CC(=O)N[C@H](C(=O)N4C[C@H](O)C[C@H]4C(=O)N[C@@H](C)c4ccc(-c5scnc5C)cc4)C(C)(C)C)CC3)c(N)nn2)c1O [Compound 91] | < 1000 | – | – | 82 | – | – | – |
| Cc1ncsc1-c1ccc([C@H](C)NC(=O)[C@@H]2C[C@@H](O)CN2C(=O)[C@@H](NC(=O)CN2CCN(c3cc(-c4c(O)ccc(F)c4F)nnc3N)CC2)C(C)(C)C)cc1 [Compound 96] | < 1000 | – | – | 76 | – | – | – |
| Cc1ncsc1-c1ccc([C@H](C)NC(=O)[C@@H]2C[C@@H](O)CN2C(=O)[C@@H](NC(=O)CC2CCN(c3cc(-c4cc(F)ccc4O)nnc3N)CC2)C(C)(C)C)cc1 [Compound 99] | < 1000 | 100 | 99 | 75 | < 1000 | – | – |
| Cc1ncsc1-c1ccc([C@H](C)NC(=O)[C@@H]2C[C@@H](O)CN2C(=O)[C@@H](NC(=O)C=C2CCN(c3cc(-c4ccccc4O)nnc3N)CC2)C(C)(C)C)cc1 [Compound 103] | < 1000 | – | – | 64 | – | – | – |
| O=C(/C=C/N1C[C@H]2C[C@@H]1CN2c1ccccn1)c1ccccc1O [PFI-3] | – | – | – | – | – | – | fails to display an antiproliferative phenotype |

From patent publication US12371426B2, “Pyridazine derivatives as SMARCA2/4 degraders” (Aurigene Discovery Technologies Limited, priority 2018, dated 2025)
